Earlier results, collected in patent US20250339484A1, “COMPOSITION FOR BODY FAT REDUCTION CONTAINING EXTRACTS OF TARAXACUM PLATYCARPUM AND LONICERAE JAPONICA AS ACTIVE INGREDIENTS” (BOINBIO-CONVERGENCE CO., LTD., priority 2022, published 2025).

Conditions: clinical trials, about 3 g per day, after 3 months

CCCC/C=C/C=C/C=C\CCCCCCCC(=O)O [CLA, conjugated linolenic acid]
body weight reduction (average): 2.5 kg
